{"source": "patent US20150056273A1", "about": "(National Taiwan University of Science and Technology, priority 2013, published 2015)", "key": {"[1]": {"assay": "percutaneous penetration experiments with different microbubble sizes, pigskin", "format": "in vitro ADME, pig", "conditions": "microbubbles 1 minute, then dye with ultrasound 15 minutes", "excerpt": "In another experiment, the skin tissue simulator formed form the agar gel is replaced by a pigskin of 2 mm thickness. The perfusion zone was placed on the pigskin for conducting the percutaneous penetration experiments, and the experimental system and the methods were similar to the penetration-through experiments of the agar stimulator. The experiment also use different ultrasound energy for 1 W/cm^2, 2 W/cm^2 and 3 W/cm^2, and the particle sizes of the microbubbles in the microbubble ultrasonic contrast agent are about 1.4 μm, 2.1 μm, and 3.5 μm. […] Then the microbubble ultrasonic contrast agent was washed away. The dye solution was placed in the perfusion zone and the ultrasound was applied for 15 minutes to force the dye diffused into the tissue simulator."}, "[2]": {"assay": "penetration-through experiments with different microbubble sizes, agar tissue simulator", "format": "in vitro ADME", "conditions": "1 minute, 0.25 wt % Evans blue, microbubbles 2×10^8 particles/ml", "excerpt": "The percutaneous penetration experiments with different microbubble diameters are also been made. […] A skin tissue simulator 20 is formed of 0.3 wt % agarose gel (agar gel). The mechanical oscillation wave source may be an ultrasound probe 40. The ultrasound probe 40 is mounted on the dropper rack 22 and the ultrasound probe 40 is set at a distance of about 5 mm from the tissue stimulator 20. The conductive gel 35 is disposed on the probe 40 so that the conductive gel 35 is located apart from the tissue stimulator 20 with a distance of about 3 mm. The perfusion zone 33 is placed above the tissue stimulator 20 and the conductive gel 30 is located outside of the perfusion zone 33.\nAnd the dye for observing the penetration depth in the skin tissue simulator is Evans blue which mixed with water to form a 0.25 wt % dye solution.\nThe surface of the tissue stimulator is rinsed three times (1000 μl). The control group utilized the saline solution of 0.25 wt % Evans blue dye. […] After the dye placed in the perfusion zone for a predetermined time, the penetration depth of the dye of the tissue stimulator was observed by the microscope and the results were processed by MATLAB program to calculate the dye penetration depth.\nIn the following experiments, different parameters were changed to find the best conditions for the penetration depth of the dye. […] And each group further had three experiments with the different ultrasound energy for 1 W/cm^2, 2 W/cm^2, and 3 W/cm^2. The ultrasound applied for 1 minute."}}}
{"smiles": "Cc1cc(-c2ccc(/N=N/c3ccc4c(S(=O)(=O)O)cc(S(=O)(=O)O)c(N)c4c3O)c(C)c2)ccc1/N=N/c1ccc2c(S(=O)(=O)O)cc(S(=O)(=O)O)c(N)c2c1O", "note": "[U only, Evans blue]", "values": [{"measurement": "penetration depth of the dye", "setting": "[1]; ultrasound 1 W (1 W/cm^2)", "result": 12.78, "unit": "μm"}, {"measurement": "penetration depth of the dye", "setting": "[1]; ultrasound 2 W (2 W/cm^2)", "result": 14.17, "unit": "μm"}, {"measurement": "penetration depth of the dye", "setting": "[1]; ultrasound 3 W (3 W/cm^2)", "result": 15.5, "unit": "μm"}, {"measurement": "penetration depth of the dye", "setting": "[2]; ultrasound 1 W (1 W/cm^2)", "result": "373 ± 23", "unit": "μm"}, {"measurement": "penetration depth of the dye", "setting": "[2]; ultrasound 2 W (2 W/cm^2)", "result": "354 ± 14", "unit": "μm"}, {"measurement": "penetration depth of the dye", "setting": "[2]; ultrasound 3 W (3 W/cm^2)", "result": "379 ± 20", "unit": "μm"}]}
